Where a name gives a salt, the structure may show the parent alone.
Assays:
[1] = biological target: T1, human dopamine D2A receptors (Homo sapiens, UniProt P14416); experiment: D2 binding test (125I-spiperone, HEK-293 cells); conditions: selectivity versus D2 receptor, Ki(D2)/Ki(D3)
T1 construct: expressed in transfected cells; host or cells: HEK-293 cells
Description: All the media contained 100 units of penicillin […] and 100 μg/ml of streptomycin/ml. The cells were maintained at 37° C. in a moist atmosphere containing 5% CO2.
The cells were prepared for the binding studies by trypsinizing them (0.05% solution of trypsin) at room temperature for 3-5 minutes. After that, the cells were centrifuged at 250 g for 10 minutes and treated with lysis buffer (5 mM Tris-HCl, 10% glycerol, pH 7.4) at 4° C. for 30 minutes. After centrifuging at 250 g for 10 minutes, the residue was stored at −20° C. until used.
Low affinity state dopamine D2 receptor using ^125I-spiperone (81 TBq/mmol, Du Pont de Nemours, Dreieich)
The test mixtures (1 ml) consisted of 1×10^5 cells in incubation buffer (50 mM Tris, 120 mM NaCl, 5 mM KCl, 2 mM MgCl2 and 2 mM CaCl2, pH 7.4 with HCl) and […] ^125I-spiperone (total binding) or additionally 1 μM haloperidol (nonspecific binding) or test substance.
After the test mixtures had been incubated at 25° C. for 60 minutes, they were filtered through GM/B glass filters (Whatman, England) on a Skatron cell harvester (from Zinsser, Frankfurt), and the filters were washed with ice-cold 50 mM Tris-HCl buffer, pH 7.4. The radioactivity which had collected on the filters was quantified using a Packard 2200 CA liquid scintillation counter.
The results were evaluated as described in a).
The Ki values were determined by way of nonlinear regression analysis using the LIGAND program or by converting the IC50 values using the Cheng and Prusoff formula.

human D3-receptor = biological target: T2, human D3-receptor (Homo sapiens, UniProt P35462); experiment: D3 binding test (125iodosulpiride, membranes of CCL 1,3 mouse fibroblasts); conditions: negative logarithm of the affinity constant for the D3 receptor; read-out: pKi (D3) (converted)
T2 construct: host or cells: CCL 1,3 mouse fibroblasts
T2 sequence (P35462 whole entry): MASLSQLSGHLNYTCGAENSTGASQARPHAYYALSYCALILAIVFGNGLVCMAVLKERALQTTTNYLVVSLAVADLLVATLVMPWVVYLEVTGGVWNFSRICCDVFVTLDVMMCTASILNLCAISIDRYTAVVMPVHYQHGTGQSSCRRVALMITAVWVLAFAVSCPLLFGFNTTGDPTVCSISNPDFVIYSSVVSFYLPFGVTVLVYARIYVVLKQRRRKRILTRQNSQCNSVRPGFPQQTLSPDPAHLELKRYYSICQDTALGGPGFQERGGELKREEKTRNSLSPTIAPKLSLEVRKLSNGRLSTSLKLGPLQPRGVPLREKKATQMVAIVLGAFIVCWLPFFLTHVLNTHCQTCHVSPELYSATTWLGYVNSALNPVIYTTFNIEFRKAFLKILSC
Description: Cloned human D3-receptor-expressing CCL 1,3 mouse fibroblasts, obtainable from Res. Biochemicals Internat. One Strathmore Rd., Natick, Mass. 01760-2418 USA, were used for the binding studies.
The D3-expressing cells were multiplied in RPMI-1640 containing 10% fetal calf serum (GIBCO No. 041-32400 N); 100 U of penicillin/ml and 0.2% streptomycin (GIBO BRL, Gaithersburg, Md., USA). After 48 h, the cells were washed with PBS and incubated for 5 min with 0.05% trypsin-containing PBS. After that, the solution was neutralized with medium and the cells were collected by centrifuging at 300 g. In order to lyse the cells, the pellet was washed briefly with lysis buffer (5 mM Tris-HCl, pH 7.4, containing 10% glycerol) and after that incubated, at 4° C. for 30 min, at a concentration of 10^7 cells/ml of lysis buffer. The cells were centrifuged at 200 g for 10 min and the pellet was stored in liquid nitrogen.
For the D3-receptor binding test, the membranes were suspended in incubation buffer (50 mM Tris-HCl, pH 7.4, containing 120 mM NaCl, 5 mM KCl, 2 mM CaCl2, 2 mM MgCl2, 10 μM quinolinol, 0.1% ascorbic acid and 0.1% BSA), at a concentration of approx. 10^6 cells/250 μl of test mixture, and incubated at 30° C. with 0.1 nM ^125iodosulpiride in the presence and absence of the test substance. The nonspecific binding was determined using 10^−6 M spiperone.
After 60 min, the free radioligand and the bound radioligand were separated by filtering through GF/B glass fiber filters (Whatman, England) on a Skatron cell harvester (Skatron, Lier, Norway), and the filters were washed with ice-cold Tris-HCl buffer, pH 7.4. The radioactivity which had collected on the filters was quantified using a Packard 2200 CA liquid scintillation counter.
The Ki values were determined by means of nonlinear regression analysis using the LIGAND program.

T1 sequence (P14416 whole entry): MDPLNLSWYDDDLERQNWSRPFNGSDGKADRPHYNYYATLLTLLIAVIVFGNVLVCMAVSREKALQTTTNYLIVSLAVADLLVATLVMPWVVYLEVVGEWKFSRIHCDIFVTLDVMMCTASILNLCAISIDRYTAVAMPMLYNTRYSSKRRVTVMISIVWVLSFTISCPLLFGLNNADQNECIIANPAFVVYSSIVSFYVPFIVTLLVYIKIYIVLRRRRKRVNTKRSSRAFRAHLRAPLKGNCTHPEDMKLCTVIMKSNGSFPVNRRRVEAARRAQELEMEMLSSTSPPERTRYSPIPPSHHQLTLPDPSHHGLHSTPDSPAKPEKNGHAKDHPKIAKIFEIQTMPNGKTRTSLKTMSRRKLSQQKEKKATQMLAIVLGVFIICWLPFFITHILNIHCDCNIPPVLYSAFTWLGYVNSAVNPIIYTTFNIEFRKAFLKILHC

melting point | Selectivity [1] | Ki (human D3-receptor) | SMILES
90 °C |  |  | Cn1c(SCCCN2CCc3ccc(NS(C)(=O)=O)cc3C2)nnc1-c1ccccc1 (as salt: HCl) [Example 84, N-[2-(3-{[4-Methyl-5-phenyl-4H-1,2,4-triazol-3-yl]sulfanyl}-propyl)-1,2,3,4-tetrahydroisoquinolin-7-yl]methansulfonamide]
73 to 75 °C |  |  | COc1cccc2c1CCN(CCCSc1nnc(-c3ccccc3)n1C)C2 [Example 11, 5-Methoxy-2-{3-[(4-methyl-5-phenyl-4H-1,2,4-triazol-3-yl)-sulfanyl]propyl}-1,2,3,4-tetrahydroisoquinoline]
67 to 70 °C |  |  | Cc1ncsc1-c1nnc(SCCCN2CCc3ccc(S(=O)(=O)NCc4ccccc4)cc3C2)n1C [Example 9, N-Benzyl-2-(3-{[4-methyl-5-(4-methyl-1,3-thiazol-5-yl)-4H-1,2,4-triazol-3-yl]sulfanyl}propyl)-1,2,3,4-tetrahydroisoquinoline-7-sulfonamide]
116 to 118 °C | 81 | 4.27 nM | Cn1c(SCCCN2CCc3ccc(C#N)cc3C2)nnc1-c1ccccc1 [Example 7, 2-{3-[(4-Methyl-5-phenyl-4H-1,2,4-triazol-3-yl)sulfanyl]propyl}-1,2,3,4-tetrahydroisoquinoline-7-carbonitrile]
160 to 163 °C |  |  | COC(=O)c1ccc2c(c1)CN(CCCSc1nnc(-c3ccccc3)n1C)CC2.O=C(O)C(=O)O
 | 78 | 9.55 nM | COc1ccc2c(c1)CCN(CCCSc1nnc(-c3ccccc3)n1C)C2 [Example 3, 2-{3-[(4-Methyl-5-phenyl-4H-1,2,4-triazol-3-yl)sulfanyl]propyl}-6-methoxy-1,2,3,4-tetrahydroisoquinoline]
179 to 181 °C |  |  | COc1ccc2c(c1)CCN(CCCSc1nnc(-c3ccc[nH]3)n1C)C2 [Example 2, 6-Methoxy-2-{3-[(4-methyl-5-pyrrol-2-yl-4H-1,2,4-triazol-3-yl)-sulfanyl]propyl}-1,2,3,4-tetrahydroisoquinoline]
205 to 207 °C |  |  | Cl.Cn1c(SCCCN2CCc3ccc(C(F)(F)F)cc3C2)nnc1-c1ccccc1
99 to 100 °C |  |  | Cn1c(SCCCN2CCc3cc(Cl)ccc3C2)nnc1-c1ccsc1 [Example 39, 6-Chloro-2-{3-[(4-methyl-5-thien-3-yl-4H-1,2,4-triazol-3-yl)-sulfanyl]propyl}-1,2,3,4-tetrahydroisoquinoline]
75 to 76 °C |  |  | Cn1c(SCCCN2CCc3ccc(S(=O)(=O)N4CCCC(C)(C)C4)cc3C2)nnc1-c1ccccc1 [Example 49, 7-[(3,3-Dimethylpiperidin-1-yl)sulfonyl]-2-{3-[(4-methyl-5-phenyl-4H-1,2,4-triazol-3-yl)sulfanyl]propyl}-1,2,3,4-tetrahydroisoquinoline]
110 to 112 °C |  |  | CCN(CC)CCOc1cccc2c1CCN(CCCSc1nnc(-c3ccccc3)n1C)C2.Cl.Cl
105 to 108 °C | 67 | 11 nM | Cn1c(SCCCN2CCc3ccc(S(=O)(=O)N4CCCCC4)cc3C2)nnc1-c1ccccc1 [Example 4, 2-{3-[(4-Methyl-5-phenyl-4H-1,2,4-triazol-3-yl)sulfanyl]propyl}-7-(piperidin-1-ylsulfonyl)-1,2,3,4-tetrahydroisoquinoline]
175 °C |  |  | Cl.Cn1c(CCCCN2CCc3ccc(C#N)cc3C2)nnc1-c1ccccc1
146 to 150 °C |  |  | C=C(CSc1nnc(-c2ccccc2)n1C)CN1CCc2ccc([N+](=O)[O-])cc2C1.Cl
87 to 89 °C |  |  | Cl.Cl.Cn1c(SCCCN2CCc3ccccc3C2)nnc1-c1cccnc1
77 to 81 °C |  |  | Cc1ncsc1-c1nnc(SCCCN2CCc3ccc(S(=O)(=O)Nc4ccccc4)cc3C2)n1C [Example 26, 2-(3-{[4-Methyl-5-(4-methyl-1,3-thiazol-5-yl)-4H-1,2,4-triazol-3-yl]sulfanyl}propyl)-N-phenyl-1,2,3,4-tetrahydroisoquinoline-7-sulfonamide]
96 to 100 °C |  |  | Cn1cccc1-c1nnc(SCCCN2CCc3ccc(S(=O)(=O)N4CCCCC4)cc3C2)n1C [Example 35, 2-(3-{[4-Methyl-5-(1-methyl-1H-pyrrol-2-yl)-4H-1,2,4-triazol-3-yl]sulfanyl}propyl)-7-(piperidin-1-ylsulfonyl)-1,2,3,4-tetrahydroisoquinoline]
138 to 139 °C |  |  | Cn1c(SCCCN2CCc3cc(Cl)c(Cl)cc3C2)nnc1-c1ccccc1 [Example 28, 6,7-Dichloro-2-{3-[(4-methyl-5-phenyl-4H-1,2,4-triazol-3-yl)-sulfanyl]propyl}-1,2,3,4-tetrahydroisoquinoline]
184 to 185 °C |  |  | Cl.Cn1c(SCCCN2CCc3cc(C(F)(F)F)ccc3C2)nnc1-c1ccsc1
75 °C |  |  | CCN(CC)Cc1ccc2c(c1)CN(CCCSc1nnc(-c3ccccc3)n1C)CC2.Cl.Cl
81 to 84 °C |  |  | Cn1c(SCCCN2CCc3ccc(S(=O)(=O)NCc4ccccc4)cc3C2)nnc1-c1cccnc1 (as salt: HCl) [Example 10, N-Benzyl-2-{3-[(4-methyl-5-pyridin-3-yl-4H-1,2,4-triazol-3-yl)-sulfanyl]propyl}-1,2,3,4-tetrahydroisoquinoline-7-sulfonamide]
58 to 61 °C |  |  | Cn1c(SCCCN2CCc3ccc(S(=O)(=O)Nc4ccccc4)cc3C2)nnc1-c1cccnc1 [Example 25, 2-{3-[(4-Methyl-5-pyridin-3-yl-4H-1,2,4-triazol-3-yl)sulfanyl]-propyl}-N-phenyl-1,2,3,4-tetrahydroisoquinoline-7-sulfonamide]

Reference: US6602867B1, “Triazole compounds with dopamine-D3-receptor affinity” (Abbott Laboratories, priority 1999, dated 2003)
